The text below walks through data of patent publication EP0944629B1, “BIARYL-PYRIDOQUINAZOLINONE DERIVATIVES AS ANTI-CANCER AGENTS” (American Cyanamid Company, priority 1996, dated 1998).

One series relates to COLON 26. The series is described as follows: Murine Colon 26 Advanced, Metastatic Tumor. The class given is in vivo, CD2F1 mice. On the procedure: CD2F1 mice are injected i.p. with 5 x 10^5 tumor cells on Day 0 of the test. […] Positive drug response is indicated by a more than 25% increase in the mean life span (% ILS), relative to placebo treated controls. Drugs are considered to be toxic, when the mean life span of the drug treated animals is more than 15% shorter than placebo treated controls.

Another series has as its system A2780 S. Briefly: two cell line test procedure (sulforhodamine B cytotoxicity), A2780 S. The class given is cell-based. To be noted: A2780 S cells, 48 hours exposure. The procedure:
(§1) A2780 S and A2780 DDP cells [Biochemical and Molecular Properties of Cisplatin-resistant A2780 Cells Grown in Folinic Acid; Y. Lu, J. Hnan, and K. Scanlon, J. Biol. Chem., 263, 4891-4894, 1988.] are grown in RPMI 1640 medium containing 5% fetal calf serum, 50 µg/ml streptomycin, 50 units/ml penicillin, 50 µg/ml gentamycin, 0.03% L-glutamine, 1 nM estradiol, 1 nM testosterone, 5 µg/mlinsulin, 5 µg/ml transferrin, and 5 ng/ml selenous acid, at 37°C, in a humidified atmosphere, containing 5% CO2. Experiments are done in the same media.
(§2) Cells are plated at the concentration of 5 x 10^4/ml on Day 0 of the experiment. On Day one control cells are fixed with trichloroacetic acid and 5 ten fold dilutions of tested compounds are added, in duplicates, to the remaining cells. On Day 3 (48 hours exposure to drugs) all cells are fixed with trichloroacetic acid, stained with 0.4% sulforhodamine B, and absorbency is read at 520 nm. The IC50s (concentration causing 50% inhibition) are determined for each drug.

Another series relates to A2780 DDP. The series is described as follows: two cell line test procedure (sulforhodamine B cytotoxicity), A2780 DDP. The class given is cell-based. The conditions noted are these: A2780 DDP (cisplatin-resistant) cells, 48 hours exposure. On the procedure:
as §1, §2

A further series concerns LS174T. To be noted: days 1,5,9.
Series [1] concerns P388. Briefly: Murine P388 Leukemia. It is filed as in vivo, CD2F1 mice. On the procedure:
CD2F1 mice are injected i.p. with 1 x 10^6 tumor cells on Day 0 of the test. Drugs are administered i.p. on Days 1, 5, and 9 after the tumor implantation. Positive drug response is indicated by a more than 25% increase in the mean life span (% ILS), relative to placebo treated controls. Drugs are considered to be toxic when the mean life span of the drug treated animals is more than 15% shorter than placebo treated controls.

The conditions of series [2]: reported by Denny et al.; cited from earlier work.
The conditions of series [3]: reported by Denny et al.; cited from earlier work. This is another data set of the same source.
The subject of series [4] is P388. To be noted: reported by Denny et al.; cited from earlier work.
[5] abbreviates: COLON 26, 200 mg/kg i.p., days 5,9,13.
The mark [6] stands for this setting: P388, 50 mg/kg i.p., days 1,5,9.
[7] abbreviates: P388, 100 mg/kg i.p., days 1,5,9.
[8] abbreviates: P388, 200 mg/kg i.p., days 1,5,9.

Converted amounts (≈) assume the structure as drawn. Where two headings read alike, the source gives them in different places.

Experimental for LS174T: Human tumor fragments are implanted s.c. in athymic nude mice. Tumors are allowed to grow until they attain a mass of 100-150 mgs. […] Drugs are administered i.p. at Days 1, 5, and 9. Each mouse tumor mass is determined every 7 days, until Day 28, using caliper measurements of tumor length and width. Mean tumor mass for each group of animals is then calculated and the relative tumor growth determined. The relative tumor growth is defined as a ratio of the tumor mass on a given day to a tumor mass on Day 0. Calculation of % T/C (the relative tumor growth of treated group divided by the relative tumor growth of placebo group, multiplied by 100) is made for each day of measurement. A positive drug response is indicated by a % T/C value below 60%, and a p value in the Student t-test of less than 0.05. More than 20% deaths in the group related to the drug administration indicates toxicity.

Consider `COc1cccc2c1C(=O)c1c(O)c3c(c(O)c1C2=O)C[C@@](O)(C(=O)CO)C[C@@H]3O[C@H]1C[C@H](N)[C@H](O)[C@H](C)O1` [Adriamycin, reference compound], for which, in the series on COLON 26 (COLON 26, 4 mg/kg i.p., days 5,9,14), the “% ILS” value is “+71%”.
`CN(C)CCNC(=O)c1cccn2c(=O)c3cc(-c4cccc(N)c4)ccc3nc12` [Example 13, 11H-Pyrido[2,1-b]quinazoline-6-carboxamide, 2-(3-aminophenyl)-N-[2-(dimethyl-amino)ethyl]-11-oxo]: the “% ILS” value with COLON 26 (COLON 26, 100 mg/kg i.p., days 5,9,13) is recorded as “+18%”; in the series with COLON 26 (setting [5]), “+24%”; with COLON 26 (COLON 26, 250 mg/kg i.p., days 5,9,13), “+35%”; in the series with P388 [1] (setting [6]), “+2%”; in the series on P388 [1] (setting [7]), “+20%”; in the series with P388 [1] (setting [8]) it was “+57%”. In addition, the “IC50 (µg/ml) A2780 S” value in the series with A2780 S was determined as 0.40 µg/mL (≈ 0.996 µM). In addition, in the series on A2780 DDP, the “IC50 (µg/ml) A2780 DDP” value was 3.70 µg/mL (≈ 9.22 µM). Moreover, the “%T/C” value in the series with LS174T (250 mg/kg i.p.) is reported as 59 %T/C; with LS174T (300 mg/kg i.p.), 44 %T/C.
As to `CN(C)CCNC(=O)c1cccn2c(=O)c3cc(-c4ccccc4-c4ccccc4)ccc3nc12` [Example 14, 11H-Pyrido[2,1-b]quinazoline-6-carboxamide, 2-[1,1'biphenyl]-2-yl-N-[2-(dimethylamino)ethyl]-11-oxo], the “IC50 (µg/ml) A2780 S” value with A2780 S amounted to 4.40 µg/mL (≈ 9.51 µM). Moreover, the “IC50 (µg/ml) A2780 DDP” value with A2780 DDP was 4.80 µg/mL (≈ 10.4 µM).
On to `CN(C)CCNC(=O)c1cccn2c(=O)c3cc(-c4cccc(-c5ccccc5)c4)ccc3nc12` [Example 15, 11H-Pyrido[2,1-b]quinazoline-6-carboxamide, 2-[1,1'-biphenyl]-3-yl-N-[2-(dimethylamino)ethyl]-11-oxo], for which the “IC50 (µg/ml) A2780 S” value with A2780 S turned out to be 0.60 µg/mL (≈ 1.3 µM). Besides, the “IC50 (µg/ml) A2780 DDP” value in the series on A2780 DDP is 0.80 µg/mL (≈ 1.73 µM). The “% ILS” value in the series on P388 [1] (setting [6]) is listed as “+8%”; with P388 [1] (setting [7]) it was “+2%”; in the series on P388 [1] (P388, 200 mg/kg i.p., days 1,5), -40%.
As for `CN(C)CCNC(=O)c1cccn2c(=O)c3cc(-c4cc5ccccc5c5ccccc45)ccc3nc12` [Example 16], the “IC50 (µg/ml) A2780 S” value in the series on A2780 S turned out to be 4.10 µg/mL (≈ 8.43 µM). Further, in the series on A2780 DDP, the “IC50 (µg/ml) A2780 DDP” value is 5.30 µg/mL (≈ 10.9 µM).
For `CN(C)CCNC(=O)c1cccn2c(=O)c3cc(-c4cccc5ccccc45)ccc3nc12` [Example 17, 11H-pyrido[2,1-b)quinazoline-6-carboxamide, N-[2-(dimethylamino)ethyl]-2-(1-naphthalenyl)-11-oxo], in the series on A2780 S, the “IC50 (µg/ml) A2780 S” value was found to be 4.60 µg/mL (≈ 10.5 µM). In the series on A2780 DDP, the “IC50 (µg/ml) A2780 DDP” value turned out to be 4.70 µg/mL (≈ 10.8 µM).
As for `CN(C)CCNC(=O)c1cccn2c(=O)c3cc(-c4cccc(C(F)(F)F)c4)ccc3nc12` [Example 18], in the series on A2780 S, the “IC50 (µg/ml) A2780 S” value was determined as 1.10 µg/mL (≈ 2.42 µM). In addition, the “IC50 (µg/ml) A2780 DDP” value in the series with A2780 DDP amounted to 4.20 µg/mL (≈ 9.24 µM).
`COc1ccc(-c2ccc3nc4c(C(=O)NCCN(C)C)cccn4c(=O)c3c2)cc1` [Example 19, 11H-Pyrido[2,1-b]quinazoline-6-carboxamide, N-[2-(dimethylamino)ethyl]-2-(4-methoxyphenyl)-11-oxo]: the “IC50 (µg/ml) A2780 S” value in the series with A2780 S was 4.30 µg/mL (≈ 10.3 µM). In the series with A2780 DDP, the “IC50 (µg/ml) A2780 DDP” value came out at 3.40 µg/mL (≈ 8.16 µM). Moreover, the “% ILS” value with P388 [1] (setting [6]) is -9%; in the series with P388 [1] (setting [7]) it was “+4%”; in the series on P388 [1] (setting [8]), “+6%”.
On to `CN(C)CCNC(=O)c1cccn2c(=O)c3cc(-c4cc(C(F)(F)F)cc(C(F)(F)F)c4)ccc3nc12` [Example 20, 11H-Pyrido[2,1-b]quinazoline-6-carboxamide, 2-[3,5-bis(trifluoromethyl)phenyl]-N-[2-(dimethylamino)ethyl]-11-oxo], for which, in the series with A2780 S, the “IC50 (µg/ml) A2780 S” value amounted to 3.80 µg/mL (≈ 7.27 µM). The “IC50 (µg/ml) A2780 DDP” value in the series with A2780 DDP came out at 3.00 µg/mL (≈ 5.74 µM).
Consider `CN(C)CCNC(=O)c1cccn2c(=O)c3cc(-c4cccc(N(C)C)c4)ccc3nc12` [Example 21, 11H-Pyrido[2,1-b]quinazoline-6-carboxamide, N-[2-(dimethylamino)ethyl]-2-[3-(dimethylamino)phenyl]-11-oxo], for which the “IC50 (µg/ml) A2780 S” value in the series on A2780 S was 0.20 µg/mL (≈ 0.466 µM). For the same compound, the “IC50 (µg/ml) A2780 DDP” value in the series on A2780 DDP is 0.50 µg/mL (≈ 1.16 µM).
In the case of `Cl.Cl.Cl.Nc1cccc(-c2ccc3nc4c(C(=O)NCCNCCO)cccn4c(=O)c3c2)c1` [Example 24, 11H-Pyrido [2,1-b]quinazoline-6-carboxamide, 2-(3-aminophenyl)-N-[2-[(2-hydroxyethyl)amino]ethyl]-11-oxo-trihydrochloride], the “% ILS” value is reported as “+24%” in the series with COLON 26 (setting [5]); -24% in the series with COLON 26 (COLON 26, 300 mg/kg i.p., days 5,9,13); “+12%” in the series on P388 [1] (P388, 25 mg/kg i.p., days 1,5,9); “+4%” in the series with P388 [1] (setting [6]); “+4%” in the series on P388 [1] (setting [7]); 0% with P388 [1] (setting [8]). Moreover, the “IC50 (µg/ml) A2780 S” value in the series on A2780 S was 0.60 µg/mL. In addition, the “IC50 (µg/ml) A2780 DDP” value with A2780 DDP was 2.10 µg/mL.
Regarding `Cl.Cl.O=C(NCCNCCO)c1cccn2c(=O)c3cc(-c4ccccc4)ccc3nc12` [Example 26, 11H-pyrido[2,1-b]quinazoline-6-carboxamide, N-[2-[(2-hydroxyethyl)amino]-ethyl]-11-oxo-2-phenyl, dihydrochloride], the “IC50 (µg/ml) A2780 S” value in the series with A2780 S was found to be 0.80 µg/mL. Besides, in the series on A2780 DDP, the “IC50 (µg/ml) A2780 DDP” value was found to be 3.50 µg/mL.
As to `Cl.Cl.Cl.Nc1ccccc1-c1ccc2nc3c(C(=O)NCCNCCO)cccn3c(=O)c2c1` [Example 30, 11H-Pyrido[2,1-b]quinazoline-6-carboxamide, 2-(2-aminophenyl)-N-[2-[(2-hydroxyethyl)amino]ethyl]-11-oxo-trihydrochloride], the “IC50 (µg/ml) A2780 S” value in the series on A2780 S is 4.80 µg/mL. Also, in the series with A2780 DDP, the “IC50 (µg/ml) A2780 DDP” value stood at 6.90 µg/mL.
Taken in the same sequence, the figures for `CN(C)CCNC(=O)c1cccn2c(=O)c3ccc(-c4cccc(N)c4)cc3nc12` [Example 35, 11H-Pyrido[2,1-b]quinazoline-6-carboxamide, 3-(3-aminophenyl)-N-[2-(dimethylamino)ethyl]-11-oxo] were 0.50 µg/mL (≈ 1.25 µM) and 0.40 µg/mL (≈ 0.996 µM).
In the case of `CN(C)CCNC(=O)c1cccn2c(=O)c3ccccc3nc12` [I, N-[2-(dimethylamino)ethyl]-11-oxo-11H-pyrido[2,1-b]quinalzoline-6-carboxamide], the in vitro activity entry in series [2] is reported as “some in vitro activity”. Further, the mutagenic activity entry in series [3] was “mutagenic activity”. The “activity in a P388 mouse model” value in the series on P388 [4] is “inactive”.
With `CC[C@]1(O)C[C@H]2CN(CCc3c([nH]c4ccccc34)[C@@](C(=O)OC)(c3cc4c(cc3OC)N(C=O)[C@H]3[C@@](O)(C(=O)OC)[C@H](OC(C)=O)[C@]5(CC)C=CCN6CC[C@]43[C@@H]65)C2)C1` [Vincristine, reference compound], the “%T/C” value with LS174T (1.0 mg/kg i.p.) turned out to be 52 %T/C. Further, the “% ILS” value in the series with P388 [1] (P388, 0.8 mg/kg i.p., days 1,5,9) is “+114%”.
